Assay results reported in patent US20240384350A1, “METHODS OF TREATING CANCER WITH KINASE INHIBITORS” (BOARD OF REGENTS, THE UNIVERSITY OF TEXAS SYSTEM, priority 2021, published 2024).

Key:
Experiment in all cases: Ba/F3 drug screening, Cell Titer Glo, IC50 Mut/WT
Assay type in all cases: cell-based
[1] = molecular target: T1, EGFR R776H (Homo sapiens, UniProt P00533, R776H); conditions: PACC; R776H; Ba/F3; 72 hours
T1 construct: host or cells: Ba/F3

[2] = molecular target: T2, EGFR Ex19del/T790M/G724S (Homo sapiens, UniProt P00533, DEL746-750/G724S/T790M); conditions: T790M-like-3S, 72 hours
T2 construct: expressed in transfected cells; host or cells: Ba/F3

[3] = molecular target: T3, EGFR L858R T790M V843I (Homo sapiens, UniProt P00533, L858R/T790M/V843I); conditions: T790M-like-3S, 72 hours
T3 construct: expressed in transfected cells; host or cells: Ba/F3

[4] = molecular target: T4, EGFR L747_K754del insATSPE (Homo sapiens, UniProt P00533, DEL747-749/K754E); conditions: T790M-like-3S, 72 hours
T4 construct: expressed in transfected cells; host or cells: Ba/F3 cells, retroviral pBabe-Puro vector

[5] = molecular target: T5, EGFR S768I (Homo sapiens, UniProt P00533, S768I); conditions: PACC; S768I; Ba/F3; 72 hours
T5 construct: expressed in transfected cells; host or cells: Ba/F3

[6] = molecular target: T6, EGFR L718Q (Homo sapiens, UniProt P00533, L718Q); conditions: PACC; L718Q; Ba/F3; 72 hours
T6 construct: expressed in transfected cells; host or cells: Ba/F3

[7] = molecular target: T7, EGFR L858R S784F (Homo sapiens, UniProt P00533, L858R/S784F); conditions: Classical-Like, 72 hours
T7 construct: expressed in transfected cells; host or cells: Ba/F3 cells, retroviral pBabe-Puro vector (vector made by GeneScript from EGFR L858R)

[8] = molecular target: T8, EGFR L858R G724S (Homo sapiens, UniProt P00533, G724S/L858R); conditions: PACC; L858R G724S; Ba/F3; 72 hours
T8 construct: expressed in transfected cells; host or cells: Ba/F3 (retroviral transduction, pBabe-Puro based vectors)

[9] = molecular target: T9, EGFR L833F (Homo sapiens, UniProt P00533, L833F); conditions: Classical-Like, 72 hours
T9 construct: expressed in transfected cells; host or cells: Ba/F3 cells, retroviral pBabe-Puro vector

[10] = molecular target: T10, EGFR S811F (Homo sapiens, UniProt P00533, S811F); conditions: Classical-Like, 72 hours
T10 construct: expressed in transfected cells; host or cells: Ba/F3 cells, retroviral pBabe-Puro vector (vector made by GeneScript from EGFR WT)

[11] = molecular target: T11, EGFR A767insASV (Homo sapiens, UniProt P00533, DUP767-769); conditions: Ex20, 72 hours
T11 construct: expressed in transfected cells; host or cells: Ba/F3 cells, retroviral pBabe-Puro vector

[12] = molecular target: T12, EGFR Ex19del T854I (Homo sapiens, UniProt P00533, DEL746-750/T854I); conditions: PACC; Ex19del T854I; Ba/F3; 72 hours
T12 construct: expressed in transfected cells; host or cells: Ba/F3 (retroviral transduction, pBabe-Puro based vectors)

[13] = molecular target: T13, EGFR E709A G719S (Homo sapiens, UniProt P00533, E709A/G719S); conditions: PACC; E709A G719S; Ba/F3; 72 hours
T13 construct: expressed in transfected cells; host or cells: Ba/F3

[14] = molecular target: T14, EGFR S768I/T790M (Homo sapiens, UniProt P00533, S768I/T790M); conditions: T790M-like-3S, 72 hours
T14 construct: expressed in transfected cells; host or cells: Ba/F3

[15] = molecular target: T15, EGFR K757R (Homo sapiens, UniProt P00533, K757R); conditions: PACC; K757R; Ba/F3; 72 hours
T15 construct: expressed in transfected cells; host or cells: Ba/F3

[16] = molecular target: T16, EGFR D770insNPG (Homo sapiens, UniProt P00533, INS770NPG); conditions: Ex20, 72 hours
T16 construct: expressed in transfected cells; host or cells: Ba/F3 cells, retroviral pBabe-Puro vector

[17] = molecular target: T17, EGFR H773insNPH (Homo sapiens, UniProt P00533, INS773NPH); conditions: Ex20, 72 hours
T17 construct: expressed in transfected cells; host or cells: Ba/F3 cells, retroviral pBabe-Puro vector

[18] = molecular target: T18, EGFR V774M (Homo sapiens, UniProt P00533, V774M); conditions: PACC; V774M; Ba/F3; 72 hours
T18 construct: host or cells: Ba/F3

[19] = molecular target: T19, EGFR V769L (Homo sapiens, UniProt P00533, V769L); conditions: PACC; V769L; Ba/F3; 72 hours
T19 construct: expressed in transfected cells; host or cells: Ba/F3

[20] = molecular target: T20, EGFR L718Q T790M (Homo sapiens, UniProt P00533, L718Q/T790M); conditions: T790M-like-3R, 72 hours
T20 construct: expressed in transfected cells; host or cells: Ba/F3

[21] = molecular target: T21, EGFR L858R L718Q (Homo sapiens, UniProt P00533, L718Q/L858R); conditions: PACC; L858R L718Q; Ba/F3; 72 hours
T21 construct: host or cells: Ba/F3

[22] = molecular target: T22, EGFR R776C (Homo sapiens, UniProt P00533, R776C); conditions: PACC; R776C; Ba/F3; 72 hours
T22 construct: host or cells: Ba/F3

[23] = molecular target: T23, EGFR L833V (Homo sapiens, UniProt P00533, L833V); conditions: Classical-Like, 72 hours
T23 construct: expressed in transfected cells; host or cells: Ba/F3 cells, retroviral pBabe-Puro vector

[24] = molecular target: T24, EGFR Ex19del/L792H (Homo sapiens, UniProt P00533, DEL746-750/L792H); conditions: PACC; Ex19del/L792H; Ba/F3; 72 hours
T24 construct: expressed in transfected cells; host or cells: Ba/F3

[25] = molecular target: T25, EGFR L858R T790M L718V (Homo sapiens, UniProt P00533, L718V/L858R/T790M); conditions: T790M-like-3R, 72 hours
T25 construct: expressed in transfected cells; host or cells: Ba/F3

For `CNC(=O)CN1CCC(Oc2cc3c(Nc4cccc(Cl)c4F)ncnc3cc2OC)CC1` [Sapatinib], the “ratio of IC50 for cells with mutant EGFR to IC50 for cells with wildtype EGFR (Mut/WT)” value (from here on “ratio of IC50 for cells with mutant EGFR”) [1] was 0.001939, the “ratio of IC50 for cells with mutant EGFR” value [2] was 26.15 and the “ratio of IC50 for cells with mutant EGFR” value [3] was 49. For the same compound, the “ratio of IC50 for cells with mutant EGFR” value [4] was 7.978, the “ratio of IC50 for cells with mutant EGFR” value [5] was 0.1883 and the “ratio of IC50 for cells with mutant EGFR” value [6] was 2.03. The “ratio of IC50 for cells with mutant EGFR” value [7] was 0.06664, the “ratio of IC50 for cells with mutant EGFR” value [8] was 0.0004959 and the “ratio of IC50 for cells with mutant EGFR” value [9] was 0.006619. The “ratio of IC50 for cells with mutant EGFR” value [10] was 0.006549, the “ratio of IC50 for cells with mutant EGFR” value [11] was 2.233 and the “ratio of IC50 for cells with mutant EGFR” value [12] was 0.2548. The “ratio of IC50 for cells with mutant EGFR” value [13] was 0.02227, the “ratio of IC50 for cells with mutant EGFR” value [14] was 54.78 and the “ratio of IC50 for cells with mutant EGFR” value [15] was 0.3144. The “ratio of IC50 for cells with mutant EGFR” value [16] was 5.022, the “ratio of IC50 for cells with mutant EGFR” value [17] was 1.265 and the “ratio of IC50 for cells with mutant EGFR” value [18] was 0.05575. The “ratio of IC50 for cells with mutant EGFR” value [19] was 0.1992, the “ratio of IC50 for cells with mutant EGFR” value [20] was 54.78 and the “ratio of IC50 for cells with mutant EGFR” value [21] was 0.1961. For the same compound, the “ratio of IC50 for cells with mutant EGFR” value [22] was 0.02012, the “ratio of IC50 for cells with mutant EGFR” value [23] was 0.008594 and the “ratio of IC50 for cells with mutant EGFR” value [24] was 53.47. For the same compound, the “ratio of IC50 for cells with mutant EGFR” value [25] was 41.48.
